From article PMC6155239, “Targeting PFKFB3 radiosensitizes cancer cells and suppresses homologous recombination” (Nature Communications, 2018)

Experiments:
[1] = test system: cell lines representing pancreatic, gastric, and colon cancer; experiment: Cell viability of cancer cell lines; type: cell-based; conditions: prolonged incubation (72 h)
Method: Cell proliferation was assayed by quantifying total cellular protein levels after indicated treatments and incubation times using the Sulphorhodamine B kit, TOX6 (Sigma-Aldrich). MIA PaCa-2, PANC1, SW620, and SW480 cells were plated at a density of 6 × 10^3 cells/well in 96-well plates (CLS3596, Sigma-Aldrich) and allowed to attach overnight. The following day, compounds were diluted in dose–response curve mode, required volume was transferred to assay medium to a maximal DMSO concentration of 0.1%. The diluted compounds were added to the cells with a starting dose–response concentration of 100 µM, all compounds were tested in duplicate plates. After 72 h of incubation with compounds, total protein per well was precipitated using TCA according to the manufacturer's instructions; the sulphorhodamine dye was added to the air-dried wells. After 20 min incubation at room temperature, the dye was discarded and the samples were gently rinsed with 1% HOAc until clear. After air drying, bound dye was solubilized in 10 mM Tris base, and the absorbance of dye was measured at 565 nm. To quantify growth, samples were collected also at t = 0 h, and the resulting absorbance was set to 100%.

U2OS cells [2] = experiment: IR-induced PFKFB3/RRM2 foci co-localization; type: cell-based; conditions: pre-treatment prior to IR 6 Gy
Method: (§1) Cells were grown on sterilized coverslips and fixed with 4% paraformaldehyde (PFA) (Santa Cruz) and 2% sucrose (Sigma Aldrich) for 15 min at room temperature. They were then permeabilized with 0.2% NP-40 (Thermo Scientific) for 10 min at room temperature followed by 30 min of blocking in blocking buffer (2 or 3% BSA, 5% glycerol, 0.1% Tween 20 (Sigma Aldrich)). Coverslips were subsequently incubated for 1, 2, or 24 h in primary antibody and 40 min in secondary antibody diluted in blocking buffer, DNA was stained with DAPI for 10 min. The coverslips were mounted with Prolonged Gold mounting medium (Invitrogen). Images were acquired with a Zeiss LSM 780 microscope using a 40× or 63× oil immersion lens and processed in ImageJ and CellProfiler.
(§2) To visualize PFKFB3, RPA32, RAD51, BRCA1, 53BP1, and RRM2 IRIF, the cells were first washed with PBS and then incubated for 5 min at room temperature with cytoskeleton (CSK) buffer containing 10 mM PIPES pH 7.0 (Sigma Aldrich), 100 mM NaCl (EMD Millipore), 300 mM sucrose (Sigma Aldrich), 3 mM MgCl2 (Sigma Aldrich), and 0.7% Triton X-100 (Sigma Aldrich). After these treatments, the cells were washed once again with PBS and then fixed in 4% PFA with 2% sucrose.

U2OS cells [3] = experiment: EdU incorporation in G2/M phase upon IR, flow cytometry; type: cell-based; conditions: 10 μM 6 h prior to IR 6 Gy
U2OS cells [4] = experiment: IR-induced RAD51 / RPA32 foci, confocal; type: cell-based; conditions: in combination with IR
Method: as §1, §2

PFKFB3 = PFKFB3 (Homo sapiens, UniProt Q16875); experiment: Isothermal titration calorimetry; type: binding; conditions: 25 °C
Method: ITC was performed for the titration of 200 μM KAN0438241 into 20 μM PFKFB3 protein. Raw ITC data was recorded for 12 × 3 μl injections (preceded by 0.4 μl injection). Data was collected with PEAQ-ITC system (MicroCal™, Malvern Instruments) at 25 °C, 10 μcal/s Reference Power, High Feedback, and 750 rpm stirring rate. A constant value of the heat of dilution was fitted along with the binding parameters. Data analysis performed with dedicated PEAQ-ITC analysis software (MicroCal, Malvern Instruments).

FAK = target: T1, FAK (Homo sapiens, UniProt Q05397); experiment: KINOMEscan; type: binding; conditions: 2000 nM; read-out: Percent Control
T1 construct: purchased DiscoverX (Eurofins) KINOMEscan / scanEDGE, inferred from the naming style

[5] = target: T2, ABL1(E255K)-phosphorylated (Homo sapiens, UniProt P00519, E255K); experiment: KINOMEscan; type: binding; conditions: 2000 nM; read-out: Percent Control
T2 construct: purchased DiscoverX (Eurofins) KINOMEscan / scanEDGE, inferred from the naming style

EGFR(L858R) = target: T3, EGFR(L858R) (Homo sapiens, UniProt P00533, L858R); experiment: KINOMEscan; type: binding; conditions: 2000 nM; read-out: Percent Control
T3 construct: purchased DiscoverX (Eurofins) KINOMEscan / scanEDGE, inferred from the naming style

ERBB4 = target: T4, ERBB4 (Homo sapiens, UniProt Q15303); experiment: KINOMEscan; type: binding; conditions: 2000 nM; read-out: Percent Control
T4 construct: purchased DiscoverX (Eurofins) KINOMEscan / scanEDGE, inferred from the naming style

CDK2 = target: T5, CDK2 (Homo sapiens, UniProt P24941); experiment: KINOMEscan; type: binding; conditions: 2000 nM; read-out: Percent Control
T5 construct: purchased DiscoverX (Eurofins) KINOMEscan / scanEDGE, inferred from the naming style

ALK = target: T6, ALK (Homo sapiens, UniProt Q9UM73); experiment: KINOMEscan; type: binding; conditions: 2000 nM; read-out: Percent Control
T6 construct: purchased DiscoverX (Eurofins) KINOMEscan / scanEDGE, inferred from the naming style

ABL1-phosphorylated = target: T7, ABL1-phosphorylated (Homo sapiens, UniProt P00519); experiment: KINOMEscan; type: binding; conditions: 2000 nM; read-out: Percent Control
T7 construct: purchased DiscoverX (Eurofins) KINOMEscan / scanEDGE, inferred from the naming style

AKT2 = target: T8, AKT2 (Homo sapiens, UniProt P31751); experiment: KINOMEscan; type: binding; conditions: 2000 nM; read-out: Percent Control
T8 construct: purchased DiscoverX (Eurofins) KINOMEscan / scanEDGE, inferred from the naming style

CDK3 = target: T9, CDK3 (Homo sapiens, UniProt Q00526); experiment: KINOMEscan; type: binding; conditions: 2000 nM; read-out: Percent Control
T9 construct: purchased DiscoverX (Eurofins) KINOMEscan / scanEDGE, inferred from the naming style

CDK7 = target: T10, CDK7 (Homo sapiens, UniProt P50613); experiment: KINOMEscan; type: binding; conditions: 2000 nM; read-out: Percent Control
T10 construct: purchased DiscoverX (Eurofins) KINOMEscan / scanEDGE, inferred from the naming style

EPHA2 = target: T11, EPHA2 (Homo sapiens, UniProt P29317); experiment: KINOMEscan; type: binding; conditions: 2000 nM; read-out: Percent Control
T11 construct: purchased DiscoverX (Eurofins) KINOMEscan / scanEDGE, inferred from the naming style

AKT1 = target: T12, AKT1 (Homo sapiens, UniProt P31749); experiment: KINOMEscan; type: binding; conditions: 2000 nM; read-out: Percent Control
T12 construct: purchased DiscoverX (Eurofins) KINOMEscan / scanEDGE, inferred from the naming style

AXL = target: T13, AXL (Homo sapiens, UniProt P30530); experiment: KINOMEscan; type: binding; conditions: 2000 nM; read-out: Percent Control
T13 construct: purchased DiscoverX (Eurofins) KINOMEscan / scanEDGE, inferred from the naming style
T13 sequence (P30530 26-894): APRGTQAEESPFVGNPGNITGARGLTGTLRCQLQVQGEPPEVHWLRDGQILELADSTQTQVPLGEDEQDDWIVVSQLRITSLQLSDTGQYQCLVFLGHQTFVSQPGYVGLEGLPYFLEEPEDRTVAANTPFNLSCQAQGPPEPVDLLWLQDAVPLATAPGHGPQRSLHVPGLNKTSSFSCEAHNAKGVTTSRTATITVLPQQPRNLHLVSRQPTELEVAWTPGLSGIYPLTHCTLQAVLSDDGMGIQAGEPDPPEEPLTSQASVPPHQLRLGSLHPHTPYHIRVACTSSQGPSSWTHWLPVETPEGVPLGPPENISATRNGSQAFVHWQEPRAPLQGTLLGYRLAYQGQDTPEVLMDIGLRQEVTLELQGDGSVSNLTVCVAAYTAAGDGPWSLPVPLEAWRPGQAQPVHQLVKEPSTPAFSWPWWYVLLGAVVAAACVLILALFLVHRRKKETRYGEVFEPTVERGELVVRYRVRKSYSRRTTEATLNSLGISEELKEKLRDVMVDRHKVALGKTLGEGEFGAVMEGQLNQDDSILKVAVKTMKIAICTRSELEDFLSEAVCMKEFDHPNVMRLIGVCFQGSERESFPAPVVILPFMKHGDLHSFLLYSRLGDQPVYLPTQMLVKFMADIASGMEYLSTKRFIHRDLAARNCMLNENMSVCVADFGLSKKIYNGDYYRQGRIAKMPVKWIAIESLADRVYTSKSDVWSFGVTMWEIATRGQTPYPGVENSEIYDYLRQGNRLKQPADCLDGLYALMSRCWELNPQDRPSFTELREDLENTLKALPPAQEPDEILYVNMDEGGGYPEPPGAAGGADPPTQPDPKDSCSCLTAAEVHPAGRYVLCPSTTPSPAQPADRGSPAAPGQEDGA

T11 sequence (P29317 24-976): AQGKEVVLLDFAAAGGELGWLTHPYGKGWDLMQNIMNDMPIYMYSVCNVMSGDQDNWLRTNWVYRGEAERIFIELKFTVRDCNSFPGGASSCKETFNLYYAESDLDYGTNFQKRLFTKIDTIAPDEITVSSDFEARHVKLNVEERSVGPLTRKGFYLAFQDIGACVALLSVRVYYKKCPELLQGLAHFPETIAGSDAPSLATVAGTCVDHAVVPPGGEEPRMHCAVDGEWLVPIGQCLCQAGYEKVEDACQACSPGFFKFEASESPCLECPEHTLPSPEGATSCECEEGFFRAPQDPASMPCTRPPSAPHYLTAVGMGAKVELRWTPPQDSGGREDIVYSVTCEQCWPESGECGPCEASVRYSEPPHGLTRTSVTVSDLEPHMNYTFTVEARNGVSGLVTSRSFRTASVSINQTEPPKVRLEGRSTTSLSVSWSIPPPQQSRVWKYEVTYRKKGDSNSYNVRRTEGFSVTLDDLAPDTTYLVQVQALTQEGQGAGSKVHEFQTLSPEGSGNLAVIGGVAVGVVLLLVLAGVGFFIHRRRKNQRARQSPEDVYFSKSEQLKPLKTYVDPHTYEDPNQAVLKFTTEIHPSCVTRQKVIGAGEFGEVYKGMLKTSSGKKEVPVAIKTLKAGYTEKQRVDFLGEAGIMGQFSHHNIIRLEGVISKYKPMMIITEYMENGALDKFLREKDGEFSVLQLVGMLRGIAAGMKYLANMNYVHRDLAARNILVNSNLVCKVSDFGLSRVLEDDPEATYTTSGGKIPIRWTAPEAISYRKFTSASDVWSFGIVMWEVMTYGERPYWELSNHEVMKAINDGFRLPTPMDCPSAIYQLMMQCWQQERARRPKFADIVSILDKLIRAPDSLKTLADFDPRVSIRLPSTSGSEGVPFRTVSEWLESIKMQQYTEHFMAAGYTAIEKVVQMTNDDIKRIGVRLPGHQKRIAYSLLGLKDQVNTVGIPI
T1 sequence (Q05397 whole entry): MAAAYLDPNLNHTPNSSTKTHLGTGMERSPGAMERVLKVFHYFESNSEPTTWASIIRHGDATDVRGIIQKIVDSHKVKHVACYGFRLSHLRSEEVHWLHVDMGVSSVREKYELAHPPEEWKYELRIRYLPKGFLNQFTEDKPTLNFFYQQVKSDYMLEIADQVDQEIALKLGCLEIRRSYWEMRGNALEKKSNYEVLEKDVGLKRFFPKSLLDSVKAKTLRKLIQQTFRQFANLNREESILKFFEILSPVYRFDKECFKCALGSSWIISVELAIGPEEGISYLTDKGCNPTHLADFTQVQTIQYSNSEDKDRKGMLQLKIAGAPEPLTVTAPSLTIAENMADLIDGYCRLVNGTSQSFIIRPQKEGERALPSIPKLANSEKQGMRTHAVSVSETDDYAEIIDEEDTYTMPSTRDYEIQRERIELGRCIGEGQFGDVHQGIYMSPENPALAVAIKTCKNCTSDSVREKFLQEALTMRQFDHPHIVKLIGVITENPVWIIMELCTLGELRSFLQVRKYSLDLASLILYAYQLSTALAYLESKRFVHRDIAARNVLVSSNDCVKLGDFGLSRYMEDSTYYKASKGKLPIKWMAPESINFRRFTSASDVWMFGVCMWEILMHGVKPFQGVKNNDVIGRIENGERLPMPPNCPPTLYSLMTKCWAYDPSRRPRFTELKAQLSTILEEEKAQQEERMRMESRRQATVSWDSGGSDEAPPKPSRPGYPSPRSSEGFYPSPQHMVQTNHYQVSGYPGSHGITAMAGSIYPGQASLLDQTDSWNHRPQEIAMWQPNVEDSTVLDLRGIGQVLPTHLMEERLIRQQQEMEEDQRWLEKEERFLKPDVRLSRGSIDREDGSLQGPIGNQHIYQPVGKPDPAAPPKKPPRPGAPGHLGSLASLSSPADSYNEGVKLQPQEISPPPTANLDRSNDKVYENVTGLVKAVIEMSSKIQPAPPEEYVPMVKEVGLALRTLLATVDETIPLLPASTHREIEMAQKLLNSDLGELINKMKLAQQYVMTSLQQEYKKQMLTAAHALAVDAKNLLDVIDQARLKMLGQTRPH
T10 sequence (P50613 whole entry): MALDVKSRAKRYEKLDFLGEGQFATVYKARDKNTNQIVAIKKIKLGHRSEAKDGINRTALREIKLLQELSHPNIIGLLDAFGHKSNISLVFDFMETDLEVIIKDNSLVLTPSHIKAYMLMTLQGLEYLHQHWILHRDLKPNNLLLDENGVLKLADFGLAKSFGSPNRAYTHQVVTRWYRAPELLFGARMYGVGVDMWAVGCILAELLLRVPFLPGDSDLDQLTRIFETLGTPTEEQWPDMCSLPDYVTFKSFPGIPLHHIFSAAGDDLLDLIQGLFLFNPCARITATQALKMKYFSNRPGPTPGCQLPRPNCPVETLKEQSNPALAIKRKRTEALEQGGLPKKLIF
T12 sequence (P31749 whole entry): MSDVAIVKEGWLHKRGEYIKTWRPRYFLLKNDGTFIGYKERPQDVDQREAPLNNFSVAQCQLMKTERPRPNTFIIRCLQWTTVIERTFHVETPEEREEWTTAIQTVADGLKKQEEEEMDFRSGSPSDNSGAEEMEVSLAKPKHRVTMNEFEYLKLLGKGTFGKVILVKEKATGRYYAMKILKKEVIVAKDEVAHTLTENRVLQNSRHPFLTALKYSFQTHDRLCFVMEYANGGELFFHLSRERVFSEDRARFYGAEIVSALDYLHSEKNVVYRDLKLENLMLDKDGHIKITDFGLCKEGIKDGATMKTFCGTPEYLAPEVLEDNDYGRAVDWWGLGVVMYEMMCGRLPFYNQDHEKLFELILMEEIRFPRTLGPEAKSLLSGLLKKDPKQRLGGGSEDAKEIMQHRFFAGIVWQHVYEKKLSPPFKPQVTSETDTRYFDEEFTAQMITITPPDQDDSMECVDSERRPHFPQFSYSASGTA
PFKFB3, sequence (Q16875 whole entry): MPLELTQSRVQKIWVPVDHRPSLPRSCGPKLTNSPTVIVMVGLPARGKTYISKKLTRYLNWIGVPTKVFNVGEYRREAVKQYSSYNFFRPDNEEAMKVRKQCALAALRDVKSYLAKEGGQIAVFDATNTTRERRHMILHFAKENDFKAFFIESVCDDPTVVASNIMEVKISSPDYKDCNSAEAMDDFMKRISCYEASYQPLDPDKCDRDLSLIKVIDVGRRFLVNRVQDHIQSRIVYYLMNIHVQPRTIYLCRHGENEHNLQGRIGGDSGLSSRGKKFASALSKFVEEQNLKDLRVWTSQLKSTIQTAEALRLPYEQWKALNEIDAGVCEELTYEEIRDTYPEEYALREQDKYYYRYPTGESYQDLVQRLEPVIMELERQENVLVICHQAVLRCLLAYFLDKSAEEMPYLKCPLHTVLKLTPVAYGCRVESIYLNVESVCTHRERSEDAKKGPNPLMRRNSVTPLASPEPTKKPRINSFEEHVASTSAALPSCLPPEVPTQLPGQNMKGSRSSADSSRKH
T8 sequence (P31751 whole entry): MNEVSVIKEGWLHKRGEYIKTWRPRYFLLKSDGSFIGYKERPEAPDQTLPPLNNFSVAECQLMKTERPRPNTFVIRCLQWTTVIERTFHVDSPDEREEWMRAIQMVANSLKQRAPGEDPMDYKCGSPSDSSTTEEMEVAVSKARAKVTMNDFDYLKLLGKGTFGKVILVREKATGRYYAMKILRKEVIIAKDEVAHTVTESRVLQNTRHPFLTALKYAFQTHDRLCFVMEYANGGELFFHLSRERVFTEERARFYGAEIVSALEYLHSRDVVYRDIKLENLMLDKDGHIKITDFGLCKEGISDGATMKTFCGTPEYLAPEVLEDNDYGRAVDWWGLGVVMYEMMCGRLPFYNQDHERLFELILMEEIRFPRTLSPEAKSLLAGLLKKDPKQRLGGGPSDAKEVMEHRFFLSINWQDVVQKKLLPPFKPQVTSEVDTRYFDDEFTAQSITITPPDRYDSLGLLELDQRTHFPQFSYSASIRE
T9 sequence (Q00526 whole entry): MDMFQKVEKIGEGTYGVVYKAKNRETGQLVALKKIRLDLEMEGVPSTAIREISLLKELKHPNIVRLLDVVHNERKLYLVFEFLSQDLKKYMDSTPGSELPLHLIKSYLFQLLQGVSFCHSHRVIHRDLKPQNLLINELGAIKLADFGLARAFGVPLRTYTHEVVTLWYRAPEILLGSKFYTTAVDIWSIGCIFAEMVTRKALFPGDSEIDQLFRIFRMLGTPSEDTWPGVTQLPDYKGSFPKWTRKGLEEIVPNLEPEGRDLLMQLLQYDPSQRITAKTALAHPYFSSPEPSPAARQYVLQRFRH

Row | SMILES | effect on cell viability [1] | IR-induced co-localization of PFKFB3 and RRM2 (in words) (U2OS cells [2]) | IR-induced increase in EdU-positive cell population in G2/M phase (in words) (U2OS cells [3]) | IR-induced recruitment of RPA32 and RAD51 into repair foci (in words) (U2OS cells [4]) | potency for PFKFB3 by isothermal titration calorimetry (in words) (PFKFB3) | remaining binding at 2 µM (FAK) [%] | remaining binding at 2 µM [5] [%] | remaining binding at 2 µM (EGFR(L858R)) [%] | remaining binding at 2 µM (ERBB4) [%] | remaining binding at 2 µM (CDK2) [%] | remaining binding at 2 µM (ALK) [%] | remaining binding at 2 µM (ABL1-phosphorylated) [%] | remaining binding at 2 µM (AKT2) [%] | remaining binding at 2 µM (CDK3) [%] | remaining binding at 2 µM (CDK7) [%] | remaining binding at 2 µM (EPHA2) [%] | remaining binding at 2 µM (AKT1) [%] | remaining binding at 2 µM (AXL) [%]
1 | O=C(OCCO)c1ccc(NS(=O)(=O)c2cccc(-c3cc(F)ccc3O)c2)cc1O [KAN0438757, 2-Hydroxyethyl-4-{[(5′-fluoro-2′-hydroxybiphenyl-3-yl)sulfonyl]amino}-2-hydroxybenzoate] | significantly reduce cell viability | disrupted | impaired | disrupted | – | – | – | – | – | – | – | – | – | – | – | – | – | –
2 | O=C(O)c1ccc(NS(=O)(=O)c2cccc(-c3cc(F)ccc3O)c2)cc1O [KAN0438241, 4-{[(5′-Fluoro-2′-hydroxybiphenyl-3-yl)sulfonyl]amino}-2-hydroxybenzoic acid] | – | – | – | – | sub-µM potency | 96 | 100 | 90 | 96 | 100 | 100 | 96 | 97 | 97 | 93 | 100 | 100 | 100
